Columns and labels:
MOR = MOR (Rattus norvegicus, UniProt P33535); assay: cAMP assay (adenylyl cyclase inhibition) in HEK-MOR cells; format: cell-based
Method: Human embryonic kidney 293 (HEK-293) cells constitutively expressing MOR (HEK-MOR) and DOR (HEK-DOR) (kindly provided by Dr. Ping-Yee Law, University of Minnesota, USA) were cultured in high-glucose Dulbecco's modified Eagle's medium (DMEM, GIBCO) supplemented with 400 μg/mL G418 (Sigma), 2 mM L-glutamine and P/S/F (100 units/mL penicillin, 100 μg/mL streptomycin, 10% fetal bovine serum). Chinese hamster ovary (CHO)-K1 cells, stably expressing hMOR and Gα15 (CHO-K1/MOR/Gα15), were cultured in F12 medium (GIBCO) supplemented with 10 μg/mL Hygromycin B (Invivogen), 20 μg/mL Zeocin (Invivogen) P/S/F (100 units/mL penicillin, 100 μg/mL streptomycin, 10% fetal bovine serum). The cultures were incubated at 37° C. in a humidified 5% CO2 incubator.
Briefly, 2000 HEK-MOR cells or HEK-DOR cells were plated in 10 μL/well of DMEM in 96-well solid bottom white plates and 10 μL/well compound in HBSS in the presence with 1 μM forskolin and 100 μM 3-isobutyl-1-methylxanthine (IBMX). After 30 minutes of incubation at room temperature, 10 μL/well of labeled d2-cAMP and 10 μL/well of anti-cAMP antibody (both diluted in lysis buffer) were added to each well. Two hours later, plates were measured using the FlexStationIII (Molecular Devices Corp.) with excitation at 330 nm and emissions of 620 nm and 665 nm. […]

B6 mice = assay: Tail-flick test; format: in vivo, mouse
Method: In an exemplary in vivo method, a test compound and a MOR antagonist are injected into a mouse pain model (for example, intravenous but not limited), basal latencies are recorded before the treatment and test latencies are recorded at various specified times after the injection, and a time-response curve is recorded and AUC values are calculated to determine whether an analgesic effect is exerted on the mouse. The test compound is confirmed to be an antagonist-to-agonist allosteric modifier of the MOR upon observation of an analgesic effect.
Male wild-type (WT) B6 mice (25-30 g) were kept in a temperature-controlled animal room with a 12-h light/dark cycle. The protocol has been approved by the Institutional Animal Care and Use Committee of the National Health Research Institutes, Taiwan. Animal experiments were carried out in accordance with the Policies on the Use of Animals in Neuroscience Research and the ethical guidelines for investigations of experimental pain in conscious animals, International Association for the Study of Pain. Tail-Flick Analgesia Meter (Columbia Instruments) was used to measure the tail-flick latencies of mice. The cut-off time for each measurement was 10 s to avoid tissue damage. Basal latencies were recorded before treatment and test latencies were recorded 30, 60, 90, 120 and 180 min after an intravenous injection of drugs. […] ED50 values were determined by the up-and-down method reported in Crocker et al., Pharmacol Biochem Behav, 1984, 21, 133-136.
An in vivo study, i.e., tail-flick test, was performed to investigate whether AAMs could change innate character of μ-opioid receptor in the presence of naloxone. […] In mice injected with naloxone (10 mg/kg; s.c.), the ED50 value of compound 58 in inhibition of the tail-flick response was determined to be 23.1±7.1 nmole.

MOR, sequence (P33535 whole entry, looked up): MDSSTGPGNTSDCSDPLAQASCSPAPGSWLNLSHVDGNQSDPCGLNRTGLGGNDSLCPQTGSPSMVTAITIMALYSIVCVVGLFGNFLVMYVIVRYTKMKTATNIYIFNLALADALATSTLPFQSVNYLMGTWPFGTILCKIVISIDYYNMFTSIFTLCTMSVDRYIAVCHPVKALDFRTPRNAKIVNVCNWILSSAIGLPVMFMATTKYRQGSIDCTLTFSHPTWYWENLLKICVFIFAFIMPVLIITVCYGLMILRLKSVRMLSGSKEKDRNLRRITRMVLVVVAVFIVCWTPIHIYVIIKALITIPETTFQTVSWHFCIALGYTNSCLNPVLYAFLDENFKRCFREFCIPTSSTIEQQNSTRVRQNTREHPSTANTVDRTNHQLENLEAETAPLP

Q: How did the “selectivity mu over delta opioid receptor” value (MOR; HEK-MOR vs HEK-DOR, with naloxone (20 nM)) turn out when `Cc1cc(C(=O)O)ccc1N1C(=O)CSC1c1ccc(F)cc1` (centres unmarked) was run?
A: selective for mu-over delta-opioid receptors

Q: What about the “inhibition of adenylyl cyclase activity” value (MOR; HEK-MOR, combined with naloxone (20 nM)) of the same molecule?
A: significantly inhibited adenylyl cyclase activity

Q: And the “AUC of tail-flick inhibition” value (B6 mice; 12.5 nmole i.t. with naloxone (10 mg/kg; s.c.))?
A: 241.5±111.3 min×s

Q: What about the “AUC of tail-flick inhibition” value (B6 mice; 25 nmole i.t. with naloxone (10 mg/kg; s.c.)) of the same molecule?
A: 560.6±96.5 min×s

Q: And the “AUC of tail-flick inhibition” value (B6 mice; 50 nmole i.t. with naloxone (10 mg/kg; s.c.))?
A: 649.8±123.3 min×s

Q: What about the “antinociceptive effect, compound alone” value (B6 mice; B6 mice, 50, 25, 12.5 and 6.25 nmole i.t., no naloxone) of the same molecule?
A: didn't exhibit any antinociceptive effects

Q: What about the “ED50 in inhibition of the tail-flick response” value (B6 mice; mice injected with naloxone (10 mg/kg; s.c.), compound i.t.) of the same molecule?
A: 23.1 ± 7.1 nmol

Q: What about the “antinociception effect in mice injected with saline” value (B6 mice; saline, highest dose 50 nmole i.t.) of the same molecule?
A: no antinociception effect was observed

— patent US10544113B2 (priority 2016, dated 2020)
